One assay concerns the target T1, sGC α1/β1 heterodimer (Homo sapiens, UniProt Q02108+Q02153).
T1 construct: expressed in transfected cells; host or cells: CHO-K1 (clone #7, CHO-K1/sGC)
T1 sequence (Q02108 1-690): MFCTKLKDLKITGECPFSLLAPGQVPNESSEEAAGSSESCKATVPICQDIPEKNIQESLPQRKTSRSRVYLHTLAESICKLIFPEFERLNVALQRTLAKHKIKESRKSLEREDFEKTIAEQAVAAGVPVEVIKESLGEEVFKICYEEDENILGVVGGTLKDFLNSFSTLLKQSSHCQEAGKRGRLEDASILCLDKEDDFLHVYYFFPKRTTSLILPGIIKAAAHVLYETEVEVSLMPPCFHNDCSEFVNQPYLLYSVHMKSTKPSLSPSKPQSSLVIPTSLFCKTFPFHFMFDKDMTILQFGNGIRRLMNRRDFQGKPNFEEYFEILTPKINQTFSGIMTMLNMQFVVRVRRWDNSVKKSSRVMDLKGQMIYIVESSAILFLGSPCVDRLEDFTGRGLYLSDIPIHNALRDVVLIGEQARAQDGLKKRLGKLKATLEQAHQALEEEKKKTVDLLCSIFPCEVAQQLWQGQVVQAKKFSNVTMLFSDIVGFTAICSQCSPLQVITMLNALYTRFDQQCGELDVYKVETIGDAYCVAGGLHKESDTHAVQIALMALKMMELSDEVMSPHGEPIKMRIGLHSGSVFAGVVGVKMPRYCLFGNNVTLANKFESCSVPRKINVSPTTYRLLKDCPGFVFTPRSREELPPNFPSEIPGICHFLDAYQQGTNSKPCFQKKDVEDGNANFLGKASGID
T1 sequence (Q02153 1-619): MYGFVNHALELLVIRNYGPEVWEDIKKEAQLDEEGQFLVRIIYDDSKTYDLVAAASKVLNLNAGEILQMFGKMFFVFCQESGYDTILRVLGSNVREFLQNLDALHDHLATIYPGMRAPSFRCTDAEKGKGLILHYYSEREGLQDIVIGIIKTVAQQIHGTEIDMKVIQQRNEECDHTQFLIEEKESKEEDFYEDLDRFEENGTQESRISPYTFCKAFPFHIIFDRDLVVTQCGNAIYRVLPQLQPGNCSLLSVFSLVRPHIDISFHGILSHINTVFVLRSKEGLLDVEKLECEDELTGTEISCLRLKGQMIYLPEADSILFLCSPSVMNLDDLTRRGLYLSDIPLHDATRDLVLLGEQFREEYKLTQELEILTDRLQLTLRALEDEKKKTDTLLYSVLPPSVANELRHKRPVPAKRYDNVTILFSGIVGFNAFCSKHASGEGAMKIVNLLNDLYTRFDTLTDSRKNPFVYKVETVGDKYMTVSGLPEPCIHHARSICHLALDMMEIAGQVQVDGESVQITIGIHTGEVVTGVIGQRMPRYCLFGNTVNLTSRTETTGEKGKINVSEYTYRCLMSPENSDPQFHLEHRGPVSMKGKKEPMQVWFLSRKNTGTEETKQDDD
The experiment in a line: Cell-based sGC functional assay (CASA assay): cGMP generation in CHO-K1/sGC cells, HTRF detection. The settings on record: for Emax: CHO-K1, percent activation relative to standard Compound A in CHO-K1/sGC cells, read-out: % Act.; for EC50: inflection point (IP) of cGMP generation in CHO-K1/sGC cells, 4P fit, activity expressed as percentage of Compound A; for % Act.: percent activation relative to standard Compound A in CHO-K1/sGC cells. In outline: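 cGMP was quantified by HTRF after 1 hr, 37° C exposure of thawed CHO-K1 cells expressing sGC α1/β1 to compound, with or without 1 μM DETA-NO. IBMX (0.5 mM) blocked cGMP breakdown, and DMSO was 2.5% final. Percent of standard Compound A's maximal cGMP was fitted (4P) for inflection point.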
(In general: Time-resolved FRET reads energy transfer from a long-lived donor to a nearby acceptor.)

Assay [1] relates to Spontaneously hypertensive rats (SHR). The experiment in a line: Acute efficacy in spontaneously hypertensive rats (SHR): telemetry blood pressure lowering after a single oral dose. Format: in vivo, rat. From the text:
Acute Efficacy in Spontaneously Hypertensive Rats (SHR)
Spontaneously hypertensive rats (SHR, male, Charles River) were implanted with DSI TA11PA-C40 telemetry device (Data Sciences, Inc., St. Paul, Minn.) under isoflurane or ketamine/metomidine anesthesia. The telemetry unit catheter was inserted into the descending aorta via the femoral artery and the telemetry device was implanted subcutaneously in the left flank area. Animals were allowed to recover from surgery for 14 days before the start of any studies. Blood pressure, heart rate, and activity signals from conscious, freely moving rats were recorded continuously for 30 seconds every 10 minutes. On the day prior to administration of compound, a single oral dose of vehicle (10% transcutol/20% Cremophor/70% water) was administered to all animals to establish baseline control data. The blood pressure lowering efficacy of compound (PO) or vehicle was evaluated following a single oral gavage. Data were collected as hourly averages, and changes in blood pressure were calculated by subtracting control baseline data on an hourly basis. Animals were maintained on normal diet with a 12 hour light-dark cycle.
Maximum peak decreases of systolic blood pressure (SBP) in SHR at a particular P.O. dose (mpk milligrams per kilogram) for the following representative compounds are provided. Category A=SBP in SHRs<20 mmHg; Category B=SBP in SHRs 20-40 mmHg; Category C=SBP in SHRs>40 mmHg

The structures appear in SMILES notation.

By EC50 is commonly meant the concentration that produces a half-maximal response. A lower EC50 goes with a more potent agent. As to `CCc1nc(-c2nc(N)c3c(n2)NC(=O)C3(C)c2ccc(Cl)cc2)cn2ccnc12` (single isomer, unassigned) [Example 1A, 4-Amino-5-(4-chlorophenyl)-2-(8-ethylimidazo[1,2-a]pyrazin-6-yl)-5-methyl-5H-pyrrolo[2,3-d]pyrimidin-6(7H)-one], on sGC α1/β1 heterodimer, the Emax was found to be 124% and the concentration giving a half-maximal response (EC50) worked out at 894 nM. Also, the “Maximum peak decrease of systolic blood pressure (SBP) in SHR, Cat.” value (“Maximum peak decrease” below) in assay [1] (P.O. 1.0 mpk) was “B (Category B=SBP in SHRs 20-40 mmHg)”.

As to `CCCc1nc(-c2nc(N)c3c(n2)NC(=O)C3(C)c2ccc(Cl)cc2)cn2ccnc12` (single isomer, unassigned) [Example 2A, 4-Amino-5-(4-chlorophenyl)-5-methyl-2-(8-propylimidazo[1,2-a]pyrazin-6-yl)-5H-pyrrolo[2,3-d]pyrimidin-6(7H)-one], at sGC α1/β1 heterodimer, the Emax was 74% and a half-maximal effect (EC50) was put at 105 nM. Besides, the “Maximum peak decrease” value in assay [1] (P.O. 1.0 mpk) is on record as “C (Category C=SBP in SHRs>40 mmHg)”.

Turning to `Cc1nnc(C2(C)C(=O)Nc3nc(-c4cn5ccnc5c(Cc5ccc(F)cc5)n4)nc(N)c32)o1` (single isomer, unassigned) [Example 29A, 4-Amino-2-(8-(4-fluorobenzyl)imidazo[1,2-a]pyrazin-6-yl)-5-methyl-5-(5-methyl-1,3,4-oxadiazol-2-yl)-5H-pyrrolo[2,3-d]pyrimidin-6(7H)-one], on sGC α1/β1 heterodimer, the Emax was 102% and the EC50 was found to be 299 nM. Also, the “Maximum peak decrease” value in assay [1] (P.O. 3.0 mpk) is “B (Category B=SBP in SHRs 20-40 mmHg)”.

As for `CCc1nnc(C2(C3CC3)C(=O)Nc3nc(-c4cn5ccnc5c(CCC(F)(F)C(F)(F)F)n4)nc(N)c32)s1` (single isomer, unassigned) [Example 30A, 4-Amino-5-cyclopropyl-5-(5-ethyl-1,3,4-thiadiazol-2-yl)-2-(8-(3,3,4,4,4-pentafluorobutyl)imidazo[1,2-a]pyrazin-6-yl)-5H-pyrrolo[2,3-d]pyrimidin-6(7H)-one], on sGC α1/β1 heterodimer, the Emax was found to be 113% and the concentration for a half-maximal effect (EC50) was found to be 358 nM. In assay [1] (P.O. 3.0 mpk), the “Maximum peak decrease” value was “C (Category C=SBP in SHRs>40 mmHg)”.

As for `Nc1nc(-c2cn3ccnc3c(Cc3cccc(F)c3)n2)nc2c1C(C(=O)NC1CC1)(C1CC1)C(=O)N2` (single isomer, unassigned) [Example 38B, 4-amino-N,5-dicyclopropyl-2-(8-(3-fluorobenzyl)imidazo[1,2-a]pyrazin-6-yl)-6-oxo-6,7-dihydro-5H-pyrrolo[2,3-d]pyrimidine-5-carboxamide], on sGC α1/β1 heterodimer, the response was half-maximal at 7 nM (EC50) and the “% Act.” value came out at 103%. Also, in assay [1] (P.O. 0.3 mpk), the “Maximum peak decrease” value is “B (Category B=SBP in SHRs 20-40 mmHg)”.

Take `Nc1nc(-c2cn3ccnc3c(CCC(F)(F)C(F)(F)F)n2)nc2c1C(C(=O)NC1CC1)(C1CC1)C(=O)N2` (single isomer, unassigned) [Example 61A, 4-amino-N,5-dicyclopropyl-6-oxo-2-(8-(3,3,4,4,4-pentafluorobutyl)imidazo[1,2-a]pyrazin-6-yl)-6,7-dihydro-5H-pyrrolo[2,3-d]pyrimidine-5-carboxamide]: at sGC α1/β1 heterodimer, the Emax is 95% and the response was half-maximal at 424 nM (EC50). For the same compound, the “Maximum peak decrease” value in assay [1] (P.O. 3.0 mpk) is on record as “B (Category B=SBP in SHRs 20-40 mmHg)”.

For the compound `CC1(c2ccc(F)cc2)C(=O)Nc2nc(-c3cn4ccnc4c(CCC(F)(F)C(F)(F)F)n3)nc(N)c21` (single isomer, unassigned) [Example 68A, 4-Amino-5-(4-fluorophenyl)-5-methyl-2-(8-(3,3,4,4,4-pentafluorobutyl)imidazo[1,2-a]pyrazin-6-yl)-5H-pyrrolo[2,3-d]pyrimidin-6(7H)-one], on sGC α1/β1 heterodimer, the midpoint of the response, the EC50, lay at 37 nM and the “% Act.” value was 112%. In addition, the “Maximum peak decrease” value in assay [1] (P.O. 0.3 mpk) is reported as “C (Category C=SBP in SHRs>40 mmHg)”.

As to `CC1(c2ccc(F)cc2)C(=O)Nc2nc(-c3cn4ccnc4c(Cc4cccc(F)c4)n3)nc(N)c21` (single isomer, unassigned) [Example 90A, 4-amino-2-(8-(3-fluorobenzyl)imidazo[1,2-a]pyrazin-6-yl)-5-(4-fluorophenyl)-5-methyl-5H-pyrrolo[2,3-d]pyrimidin-6(7H)-one], at sGC α1/β1 heterodimer, the Emax was 122% and a half-maximal response (EC50) required 32 nM. For the same compound, the “Maximum peak decrease” value in assay [1] (P.O. 0.3 mpk) is given as “C (Category C=SBP in SHRs>40 mmHg)”.

Turning to `CC1(c2ccc(F)cc2)C(=O)Nc2nc(-c3cn4ccnc4c(CCC(F)(F)C(F)(F)F)n3)nc(N)c21` (single isomer, unassigned) [Example 222B, 4-amino-5-(4-fluorophenyl)-5-methyl-2-(8-(3,3,4,4,4-pentafluorobutyl)imidazo [1,2-a]pyrazin-6-yl)-5H-pyrrolo[2,3-d]pyrimidin-6(7H)-one], at sGC α1/β1 heterodimer, the Emax was found to be 121% and a half-maximal effect (EC50) was put at 578 nM. In addition, the “Maximum peak decrease” value in assay [1] (P.O. 3.0 mpk) is reported as “B (Category B=SBP in SHRs 20-40 mmHg)”.

On to `Nc1nc(-c2cn3ccnc3c(CCC(F)(F)F)n2)nc2c1C(c1ccc(Cl)cn1)(C1CC1)C(=O)N2` (single isomer, unassigned) [Example 331B, 4-amino-5-(5-chloropyridin-2-yl)-5-cyclopropyl-2-(8-(3,3,3-trifluoropropyl)imidazo[1,2-a]pyrazin-6-yl)-5H-pyrrolo[2,3-d]pyrimidin-6(7H)-one], for which, at sGC α1/β1 heterodimer, the Emax was determined as 157% and it took 1310 nM to reach a half-maximal effect (EC50). Also, the “Maximum peak decrease” value in assay [1] (P.O. 3.0 mpk) is reported as “B (Category B=SBP in SHRs 20-40 mmHg)”.

Take `CC1(c2noc(C3CC3)n2)C(=O)Nc2nc(-c3cn4ccnc4c(CCC(F)(F)C(F)(F)F)n3)nc(N)c21` (single isomer, unassigned) [Example 333B, 4-amino-5-(5-cyclopropyl-1,2,4-oxadiazol-3-yl)-5-methyl-2-(8-(3,3,4,4,4-pentafluorobutyl)imidazo[1,2-a]pyrazin-6-yl)-5H-pyrrolo[2,3-d]pyrimidin-6(7H)-one]: at sGC α1/β1 heterodimer, the Emax amounted to 81% and the half-maximal effective concentration (EC50) was determined as 84 nM. Besides, in assay [1] (P.O. 2.0 mpk), the “Maximum peak decrease” value was “B (Category B=SBP in SHRs 20-40 mmHg)”.

As to `Nc1nc(-c2cn3ccnc3c(CCC(F)(F)F)n2)nc2c1C(c1ncc(Cl)cn1)(C1CC1)C(=O)N2` (stereo not shown) [Example 374A, 4-amino-5-(5-chloropyrimidin-2-yl)-5-cyclopropyl-2-(8-(3,3,3-trifluoropropyl)imidazo[1,2-a]pyrazin-6-yl)-5H-pyrrolo[2,3-d]pyrimidin-6(7H)-one], at sGC α1/β1 heterodimer, the Emax is 126% and the EC50 is 387 nM.

Regarding `Nc1nc(-c2cn3ccnc3c(CCC(F)(F)C(F)(F)F)n2)nc2c1C(c1ccccn1)(C1CC1)C(=O)N2` (stereo not shown) [Example 382B, 4-Amino-5-cyclopropyl-2-(8-(3,3,4,4,4-pentafluorobutyl)imidazo[1,2-a]pyrazin-6-yl)-5-(pyridin-2-yl)-5H-pyrrolo[2,3-d]pyrimidin-6(7H)-one], on sGC α1/β1 heterodimer, the Emax turned out to be 149% and a half-maximal effect (EC50) was put at 453 nM.
